As usually defined, the Kd is a measure of binding affinity in units of concentration. A low value points to higher affinity.

The values that follow come from article PMC11784639, “Archaeal Signalling Networks—New Insights Into the Structure and Function of Histidine Kinases and Response Regulators of the Methanogenic Archaeon Methanosarcina acetivorans” (Environmental Microbiology, 2025).

One experiment has as its target T1, RdmS (MA0863) (Methanosarcina acetivorans, UniProt Q8TSD5).
T1 construct: gene MA_0863
T1 sequence (Q8TSD5 1-749): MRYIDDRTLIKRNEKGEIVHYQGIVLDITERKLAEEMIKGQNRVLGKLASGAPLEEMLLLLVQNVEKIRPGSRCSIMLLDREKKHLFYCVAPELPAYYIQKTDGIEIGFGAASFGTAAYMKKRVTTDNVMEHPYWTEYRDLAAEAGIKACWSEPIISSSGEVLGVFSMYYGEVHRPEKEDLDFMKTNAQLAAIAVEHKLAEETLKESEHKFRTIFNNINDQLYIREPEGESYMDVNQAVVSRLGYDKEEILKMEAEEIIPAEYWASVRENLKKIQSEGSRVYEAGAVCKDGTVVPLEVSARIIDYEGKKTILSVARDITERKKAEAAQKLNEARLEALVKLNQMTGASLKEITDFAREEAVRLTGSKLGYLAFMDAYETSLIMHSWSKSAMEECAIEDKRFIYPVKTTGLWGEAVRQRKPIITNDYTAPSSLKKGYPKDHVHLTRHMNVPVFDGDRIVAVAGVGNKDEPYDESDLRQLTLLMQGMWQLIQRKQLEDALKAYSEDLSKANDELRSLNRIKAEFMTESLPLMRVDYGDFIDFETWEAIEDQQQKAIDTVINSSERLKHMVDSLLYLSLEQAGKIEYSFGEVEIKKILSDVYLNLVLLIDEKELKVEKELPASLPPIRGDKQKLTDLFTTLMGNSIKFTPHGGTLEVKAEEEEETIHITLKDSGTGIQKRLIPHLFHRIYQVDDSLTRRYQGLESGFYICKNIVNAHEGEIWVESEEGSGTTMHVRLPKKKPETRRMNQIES
The experiment in a line: fluorescence titration with TNP-ATP. It counts as binding. As to conditions: fluorescent ATP analogue; kinase buffer pH 8, 5 mM MgCl2; 541 nm emission.

A further experiment has as its target T2, MA2082 (Methanosarcina acetivorans, UniProt Q8TP40).
T2 construct: gene MA_2082
T2 sequence (Q8TP40 1-698): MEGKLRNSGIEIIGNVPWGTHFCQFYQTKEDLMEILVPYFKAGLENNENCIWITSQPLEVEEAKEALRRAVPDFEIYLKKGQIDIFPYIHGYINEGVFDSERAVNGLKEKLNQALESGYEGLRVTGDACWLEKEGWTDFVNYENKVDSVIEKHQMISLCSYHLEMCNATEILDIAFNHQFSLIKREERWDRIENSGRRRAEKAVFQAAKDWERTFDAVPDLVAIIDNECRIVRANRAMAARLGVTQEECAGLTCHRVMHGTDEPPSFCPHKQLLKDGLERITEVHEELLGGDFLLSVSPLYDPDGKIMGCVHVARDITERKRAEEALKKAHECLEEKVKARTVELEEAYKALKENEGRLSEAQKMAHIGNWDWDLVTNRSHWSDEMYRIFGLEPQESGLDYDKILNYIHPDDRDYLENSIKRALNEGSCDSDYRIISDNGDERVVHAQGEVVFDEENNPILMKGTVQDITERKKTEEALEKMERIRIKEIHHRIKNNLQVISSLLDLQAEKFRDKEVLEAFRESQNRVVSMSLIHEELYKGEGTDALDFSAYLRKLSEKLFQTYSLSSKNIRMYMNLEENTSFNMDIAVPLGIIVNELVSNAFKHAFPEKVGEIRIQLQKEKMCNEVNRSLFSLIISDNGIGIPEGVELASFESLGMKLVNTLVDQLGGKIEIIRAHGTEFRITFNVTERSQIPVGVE
The experiment in a line: fluorescence titration with TNP-ATP. Format: binding. As to conditions: fluorescent ATP analogue; kinase buffer pH 8, 5 mM MgCl2; 541 nm emission.

The next experiment concerns the target T3, PKR1R2 (Methanosarcina acetivorans, UniProt Q8THY1).
T3 construct: gene MA_4377; cytosolic truncation PAS-HK-R1-R2 without CHASE4 and HAMP (membrane) part
T3 sequence (Q8THY1 351-1028 limits assumed): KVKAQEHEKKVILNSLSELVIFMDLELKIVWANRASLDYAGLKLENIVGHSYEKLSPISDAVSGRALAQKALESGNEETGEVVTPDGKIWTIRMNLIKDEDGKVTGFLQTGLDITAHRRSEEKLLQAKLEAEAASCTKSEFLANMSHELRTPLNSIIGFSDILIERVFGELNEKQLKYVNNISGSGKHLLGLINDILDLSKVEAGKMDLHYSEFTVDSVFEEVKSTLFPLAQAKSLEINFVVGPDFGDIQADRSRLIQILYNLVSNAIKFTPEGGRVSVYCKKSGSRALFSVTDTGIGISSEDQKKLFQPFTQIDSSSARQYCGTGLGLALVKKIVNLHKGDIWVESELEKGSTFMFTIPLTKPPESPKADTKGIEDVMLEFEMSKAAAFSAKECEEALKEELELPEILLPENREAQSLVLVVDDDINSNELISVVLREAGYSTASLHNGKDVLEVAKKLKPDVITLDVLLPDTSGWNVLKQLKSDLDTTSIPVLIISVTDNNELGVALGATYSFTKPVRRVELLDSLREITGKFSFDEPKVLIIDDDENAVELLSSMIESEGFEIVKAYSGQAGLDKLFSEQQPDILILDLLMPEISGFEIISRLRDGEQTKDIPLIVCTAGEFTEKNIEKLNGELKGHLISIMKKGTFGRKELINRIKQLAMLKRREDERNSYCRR
The experiment in a line: fluorescence titration with TNP-ATP. As to conditions: fluorescent ATP analogue; kinase buffer pH 8, 5 mM MgCl2; 541 nm emission. Format: binding.

For a further experiment, the target named is T4, MA4377 (full-length) (Methanosarcina acetivorans, UniProt Q8THY1).
T4 construct: gene MA_4377
T4 sequence (Q8THY1 1-1028): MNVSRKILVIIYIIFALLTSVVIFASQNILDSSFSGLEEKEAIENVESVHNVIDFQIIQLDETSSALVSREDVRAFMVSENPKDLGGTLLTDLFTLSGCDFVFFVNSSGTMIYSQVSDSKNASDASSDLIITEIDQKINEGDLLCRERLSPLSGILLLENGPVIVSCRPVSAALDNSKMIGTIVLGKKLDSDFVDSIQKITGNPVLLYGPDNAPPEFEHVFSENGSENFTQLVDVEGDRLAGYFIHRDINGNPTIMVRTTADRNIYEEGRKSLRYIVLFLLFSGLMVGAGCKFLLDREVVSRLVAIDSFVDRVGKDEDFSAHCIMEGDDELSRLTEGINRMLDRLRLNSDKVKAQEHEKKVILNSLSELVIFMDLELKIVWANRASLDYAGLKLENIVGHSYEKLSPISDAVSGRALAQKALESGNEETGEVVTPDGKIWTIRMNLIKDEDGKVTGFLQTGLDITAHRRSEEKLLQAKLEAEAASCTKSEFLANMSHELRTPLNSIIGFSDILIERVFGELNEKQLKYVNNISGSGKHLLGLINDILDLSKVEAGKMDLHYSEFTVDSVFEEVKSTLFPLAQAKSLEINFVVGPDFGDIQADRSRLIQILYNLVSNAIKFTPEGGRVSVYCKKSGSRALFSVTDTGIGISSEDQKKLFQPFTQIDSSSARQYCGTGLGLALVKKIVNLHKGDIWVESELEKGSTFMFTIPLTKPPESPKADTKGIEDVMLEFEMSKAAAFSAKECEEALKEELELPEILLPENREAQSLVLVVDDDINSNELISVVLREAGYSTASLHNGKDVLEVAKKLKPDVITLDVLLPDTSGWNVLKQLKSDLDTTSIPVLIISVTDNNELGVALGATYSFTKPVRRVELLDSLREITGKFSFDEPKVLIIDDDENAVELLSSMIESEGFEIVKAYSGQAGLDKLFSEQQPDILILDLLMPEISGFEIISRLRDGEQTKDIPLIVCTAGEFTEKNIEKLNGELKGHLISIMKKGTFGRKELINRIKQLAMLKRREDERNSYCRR
The experiment in a line: fluorescence titration with TNP-ATP. To be noted: fluorescent ATP analogue; kinase buffer pH 8, 5 mM MgCl2; 541 nm emission. It counts as binding.

Another experiment deals with T5, MA2013 (Methanosarcina acetivorans, UniProt Q8TPA1).
T5 construct: gene MA_2013
T5 sequence (Q8TPA1 1-1000): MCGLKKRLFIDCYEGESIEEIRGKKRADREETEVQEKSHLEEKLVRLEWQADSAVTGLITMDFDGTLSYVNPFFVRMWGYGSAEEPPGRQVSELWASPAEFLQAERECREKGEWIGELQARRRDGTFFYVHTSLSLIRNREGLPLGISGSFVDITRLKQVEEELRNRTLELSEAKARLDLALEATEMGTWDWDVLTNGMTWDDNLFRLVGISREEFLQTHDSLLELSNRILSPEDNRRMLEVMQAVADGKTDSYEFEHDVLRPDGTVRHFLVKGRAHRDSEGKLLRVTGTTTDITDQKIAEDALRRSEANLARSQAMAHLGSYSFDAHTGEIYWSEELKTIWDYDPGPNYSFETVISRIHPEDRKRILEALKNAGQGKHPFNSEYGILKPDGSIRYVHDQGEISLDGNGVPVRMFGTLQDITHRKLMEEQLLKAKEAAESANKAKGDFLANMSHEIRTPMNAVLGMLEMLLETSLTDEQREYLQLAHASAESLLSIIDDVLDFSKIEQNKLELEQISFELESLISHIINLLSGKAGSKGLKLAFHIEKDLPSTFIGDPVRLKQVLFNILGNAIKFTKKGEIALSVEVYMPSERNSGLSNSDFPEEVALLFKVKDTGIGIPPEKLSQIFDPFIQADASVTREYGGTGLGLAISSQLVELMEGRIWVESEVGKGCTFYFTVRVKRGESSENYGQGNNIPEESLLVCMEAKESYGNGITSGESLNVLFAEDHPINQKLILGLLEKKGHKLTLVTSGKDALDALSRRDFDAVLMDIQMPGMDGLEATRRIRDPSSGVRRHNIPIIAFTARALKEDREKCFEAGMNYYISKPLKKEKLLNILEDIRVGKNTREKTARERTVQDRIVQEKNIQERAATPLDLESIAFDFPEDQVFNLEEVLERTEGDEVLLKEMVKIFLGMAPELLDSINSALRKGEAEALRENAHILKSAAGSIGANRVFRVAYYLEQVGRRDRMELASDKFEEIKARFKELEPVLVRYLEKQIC
The experiment in a line: fluorescence titration with TNP-ATP. It counts as binding. As to conditions: fluorescent ATP analogue; kinase buffer pH 8, 5 mM MgCl2; 541 nm emission.

The target in another experiment is T6, PK (Methanosarcina acetivorans, UniProt Q8THY1).
T6 construct: gene MA_4377; PAS and HK domains only (no CHASE4, HAMP, R1, R2)
T6 sequence (Q8THY1 351-765 limits assumed): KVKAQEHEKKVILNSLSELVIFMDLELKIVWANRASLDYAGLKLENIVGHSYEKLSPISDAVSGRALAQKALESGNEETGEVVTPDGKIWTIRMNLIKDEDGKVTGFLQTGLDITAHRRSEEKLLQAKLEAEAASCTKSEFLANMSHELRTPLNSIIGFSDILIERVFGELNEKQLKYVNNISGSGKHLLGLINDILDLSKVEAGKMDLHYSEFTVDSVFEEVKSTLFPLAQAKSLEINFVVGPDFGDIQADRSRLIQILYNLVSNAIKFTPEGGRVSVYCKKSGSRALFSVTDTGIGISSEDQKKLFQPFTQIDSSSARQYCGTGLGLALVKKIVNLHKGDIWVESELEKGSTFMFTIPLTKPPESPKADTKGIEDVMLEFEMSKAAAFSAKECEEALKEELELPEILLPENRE
The experiment in a line: autophosphorylation, SDS-PAGE autoradiography. It counts as biochemical. As to conditions: labelled compound ([γ-32P]ATP 3.3 μM) with 200 μM ATP; 10 μM kinase; kinase buffer pH 8, 5 mM MgCl2.

As to “2′‐(3′)‐O‐(2,4,6‐trinitrophenyl)‐adenosin 5′‐triphosphat [TNP-ATP]”, the Kd at RdmS (MA0863) was 17 ± 5.7 µM; at MA2082, 29.6 ± 4.4 µM; at PKR1R2 it was roughly 11 µM; at MA4377 (full-length), roughly 11 µM; on MA2013 it was 28.2 ± 1.3 µM.

For `Nc1ncnc2c1ncn2[C@@H]1O[C@H](COP(=O)(O)OP(=O)(O)OP(=O)(O)O)[C@@H](O)[C@H]1O` [ATP], the “autophosphorylation, SDS-PAGE autoradiography” value on PK was “indeed displayed time‐dependent autokinase activity”.
